{"source": "patent US11186577B2", "about": "“Vasopressin receptor antagonists and products and methods related thereto” (BlackThorn Therapeutics, Inc., priority 2017, dated 2021)"}
{"target": "human Arginine Vasopressin Receptor 1a (AVPR1a) (Homo sapiens (Human), UniProt P37288)", "sequence (P37288 whole entry)": "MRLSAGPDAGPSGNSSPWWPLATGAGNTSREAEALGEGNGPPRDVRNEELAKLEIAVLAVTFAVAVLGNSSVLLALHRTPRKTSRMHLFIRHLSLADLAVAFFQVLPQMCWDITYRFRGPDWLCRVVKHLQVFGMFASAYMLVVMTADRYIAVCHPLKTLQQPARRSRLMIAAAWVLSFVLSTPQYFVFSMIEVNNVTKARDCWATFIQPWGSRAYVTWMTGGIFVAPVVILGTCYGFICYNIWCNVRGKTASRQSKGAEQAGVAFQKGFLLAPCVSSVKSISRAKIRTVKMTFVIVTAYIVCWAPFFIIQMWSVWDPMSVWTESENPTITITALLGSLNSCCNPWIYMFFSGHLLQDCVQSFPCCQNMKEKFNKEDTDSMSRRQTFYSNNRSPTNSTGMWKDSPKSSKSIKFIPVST", "experiment": "Vasopressin V1A receptor antagonist assay (AVP-evoked calcium, FLIPR, CHO-AVPR1a cells)", "type": "cell-based", "details": "not given", "description": "(§1) The purpose of this assay was to determine the inhibitory effect of synthesized compounds on the Vasopressin V1a receptor. The assay as performed in Chinese Hamster Ovary (CHO) cells expressing the human Arginine Vasopressin Receptor 1a (AVPR1a). Arginine Vasopressin (AVP) evokes an increase in intracellular calcium in CHO-AVPR1a cells which is measured in a fluorescence assay on the FLIPR^TETRA using calcium sensitive dyes. Test compounds were assessed for their ability to affect the magnitude of the response to AVP, with antagonists showing a concentration-dependent reduction in the AVP-mediated fluorescence. Compounds were tested in duplicate in a 10-point, 1:3 dilution series starting at a nominal concentration of 3 μM in the assay.\n(§2) CHO-AVPR1a cells were maintained in routine culture in T175 Flasks at 37° C., 5% CO2. The growth medium consists of Ham's F12 media supplemented with 10% v/v fetal bovine serum, 1× non-essential amino acids, and 0.4 mg/ml Geneticin G418.\n(§3) On day one, cells were harvested from T175 flasks when they are 80-90% confluent by first washing the cell monolayer with PBS and then dissociated using trypsin 0.05%/EDTA (3 mL for a T175 Flask). The flasks were incubated at room temperature until the cells detached. To the cell suspension, 10 ml of growth media was added and the cell density determined using the Vi-Cell automated cell counter. The cells were spun at 1000 rpm for 3 minutes, then the supernatant was carefully removed and discarded. The cell pellet was re-suspended at 6.0e^5 cells/ml in growth media. 25 μL of cells in growth media was dispensed into each well (15,000 cells per well) of a poly-D-lysine coated black, clear bottomed, 384-well plate. The plates were incubated at 37° C., 5% CO2 overnight.\n(§4) At the start of each assay day, the potency of AVP was assessed and an EC80 concentration determined for subsequent compound profiling. Assays were performed using a two-step addition protocol on the FLIPR^TETRA; first addition of 5 μl of control or test compound at 10× final in assay buffer with 15 min incubation at 37° C., 5% CO2 followed by 10 μl of AVP at 6× final concentration in assay buffer. […] The assay buffer consisted of HBSS (+Ca/+Mg) supplemented with 20 mM HEPES, and for the preparation of the AVP agonist only, 0.1% w/v bovine serum albumin. The assay was initiated by the removal of growth media from the cells and replacement with 45 μl of Calcium-6 dye (Molecular Devices) prepared at 1× in assay buffer. Cells are loaded with dye for 60-90 min at 37° C., 5% CO2 before initiation of the FLIPR^TETRA protocol. […] At the end of the incubation period, 10 μl of AVP in assay buffer containing 0.1% BSA was added at the previously determined EC80 concentration.", "units": {"IC50": "nM"}}
{"smiles": "CN1Cc2cc(Cl)ccc2-n2c(nnc2C2CC3(C2)CN(c2ccncn2)C3)C1", "note": "[compound 243]", "IC50": "100 to 500"}
{"smiles": "Cc1nccc(N2CC3(CC(c4nnc5n4-c4ccc(Cl)cc4CN(C4CC4)C5)C3)C2)n1", "note": "[compound 270]", "IC50": "100 to 500"}
{"smiles": "CN1Cc2cc(Cl)ccc2-n2c(nnc2C2CC3(C2)CN(S(C)(=O)=O)C3)C1", "note": "[compound 34, 8-chloro-5-methyl-1-(2-(methylsulfonyl)-2-azaspiro[3.3]heptan-6-yl)-5,6-dihydro-4H-benzo[f][1,2,4]triazolo[4,3-a][1,4]diazepine]", "IC50": "500 to 1000"}
{"smiles": "CN1Cc2cc(Cl)ccc2-n2c(nnc2C2CC3(C2)CN(C(=O)C2CC2(F)F)C3)C1", "note": "(stereo not shown) [compound 124]", "IC50": "100 to 500"}
{"smiles": "CN1Cc2cc(Cl)ccc2-n2c(nnc2C2CC3(C2)CN(c2nccc4c2ncn4C)C3)C1", "note": "[compound 257]", "IC50": "500 to 1000"}
{"smiles": "Cc1cnc(N2CC3(CC(c4nnc5n4-c4ccc(Cl)cc4CN(C)C5)C3)C2)nc1", "note": "[compound 239]", "IC50": "100 to 500"}
{"smiles": "CN1Cc2cc(Cl)ccc2-n2c(nnc2C2CC3(C2)CN(S(=O)(=O)C2CC2)C3)C1", "note": "[compound 26]", "IC50": "100 to 500"}
{"smiles": "CC1(N2Cc3cc(Cl)ccc3-n3c(nnc3C3CC4(C3)CN(c3ccncn3)C4)C2)CC1", "note": "[compound 254]", "IC50": "100 to 500"}
{"smiles": "CN1Cc2cc(Cl)ccc2-n2c(nnc2C2CC3(C2)CN(C(=O)C2CCC2)C3)C1", "note": "[compound 35]", "IC50": "100 to 500"}
{"smiles": "CC(=O)N1Cc2cc(Cl)ccc2-n2c(nnc2C2CC3(C2)CN(c2cccnn2)C3)C1", "note": "[compound 66]", "IC50": "100 to 500"}
{"smiles": "Cc1nc(N2CC3(CC(c4nnc5n4-c4ccc(Cl)cc4CN(C4CC4)C5)C3)C2)no1", "note": "[compound 268, 3-(6-(8-chloro-5-cyclopropyl-5,6-dihydro-4H-benzo[f][1,2,4]triazolo[4,3-a][1,4]diazepin-1-yl)-2-azaspiro[3.3]heptan-2-yl)-5-methyl-1,2,4-oxadiazole]", "IC50": "100 to 500"}
{"smiles": "Cc1nc(N2CC3(CC(c4nnc5n4-c4ccc(Cl)cc4CN(C)C5)C3)C2)no1", "note": "[compound 266, 3-(6-(8-chloro-5-methyl-5,6-dihydro-4H-benzo[f][1,2,4]triazolo[4,3-a][1,4]diazepin-1-yl)-2-azaspiro[3.3]heptan-2-yl)-5-methyl-1,2,4-oxadiazole]", "IC50": "500 to 1000"}
{"smiles": "CN1Cc2cc(Cl)ccc2-n2c(nnc2C2CC3(C2)CN(C(=O)C2(C)CC2)C3)C1", "note": "[compound 31]", "IC50": "100 to 500"}
{"smiles": "CC(C)C(=O)N1CC2(CC(c3nnc4n3-c3ccc(Cl)cc3CN(C)C4)C2)C1", "note": "[compound 30]", "IC50": "100 to 500"}
{"smiles": "Cc1cncnc1N1CC2(CC(c3nnc4n3-c3ccc(Cl)cc3CN(C)C4)C2)C1", "note": "[compound 251]", "IC50": "100 to 500"}
{"smiles": "Clc1ccc2c(c1)CN(C1CC1)Cc1nnc(C3CC4(C3)CN(c3noc(C5CC5)n3)C4)n1-2", "note": "[compound 269]", "IC50": "500 to 1000"}
{"target": "human Arginine Vasopressin Receptor 1a (AVPR1a) (Homo sapiens (Human), UniProt P37288)", "experiment": "Vasopressin V1A receptor antagonist assay (AVP-evoked calcium, FLIPR, CHO-AVPR1a cells)", "type": "cell-based", "details": "read-out: V1a IC50", "description": "as §1, §2, §3, §4", "units": {"IC50": "nM"}}
{"smiles": "CN1Cc2cc(Cl)ccc2-n2c(nnc2C2CC3(C2)CN(C(=O)C2CCOCC2)C3)C1", "note": "[compound 27]", "IC50": "> 1000"}
{"smiles": "CC1c2nnc(C3CC4(C3)CN(c3ccc(F)cn3)C4)n2-c2ccc(Cl)cc2CN1C(=O)C(C)(C)F", "note": "(stereo not shown) [compound 178]", "IC50": "< 100"}
{"smiles": "CC1(N2Cc3cc(Cl)ccc3-n3c(nnc3C3CC4(C3)CN(c3ncccn3)C4)C2)CC1", "note": "[compound 264]", "IC50": "< 100"}
{"smiles": "Cc1nc(N2CC3(CC(c4nnc5n4-c4ccc(Cl)cc4CN(C)C5)C3)C2)ncc1F", "note": "[compound 240]", "IC50": "< 100"}
{"smiles": "CC(C)OC(=O)N1Cc2cc(Cl)ccc2-n2c(C3CC4(C3)CN(c3ncccn3)C4)nnc2C1C", "note": "(single isomer, unassigned) [Cpd 167B]", "IC50": "> 1000"}
{"smiles": "CC(C)OC(=O)N1Cc2cc(Cl)ccc2-n2c(C3CC4(C3)CN(c3ccncn3)C4)nnc2C1C", "note": "(single isomer, unassigned) [Cpd 187B]", "IC50": "> 1000"}
{"smiles": "Cc1nccnc1N1CC2(CC(c3nnc4n3-c3ccc(Cl)cc3CN(C3CC3)C4)C2)C1", "note": "[compound 222]", "IC50": "< 100"}
{"smiles": "Clc1ccc2c(c1)CN(C1CC1)Cc1nnc(C3CC4(C3)CN(c3cnccn3)C4)n1-2", "note": "[compound 219]", "IC50": "< 100"}
{"smiles": "COC(=O)N1Cc2cc(Cl)ccc2-n2c(C3CC4(C3)CN(c3ccncn3)C4)nnc2C1C", "note": "(stereo not shown) [compound 184, methyl 8-chloro-4-methyl-1-(2-(pyrimidin-4-yl)-2-azaspiro[3.3]heptan-6-yl)-4H-benzo[f][1,2,4]triazolo[4,3-a][1,4]diazepine-5(6H)-carboxylate]", "IC50": "100 to 500"}
{"smiles": "Cc1nc(N2CC3(CC(c4nnc5n4-c4ccc(Cl)cc4CN(C4(C)CC4)C5)C3)C2)ccc1F", "note": "[compound 260]", "IC50": "< 100"}
{"smiles": "COc1ccc(C)nc1N1CC2(CC(c3nnc4n3-c3ccc(Cl)cc3CN(C3CC3)C4)C2)C1", "note": "[compound 274]", "IC50": "< 100"}
{"smiles": "Cc1cc(N2CC3(CC(c4nnc5n4-c4ccc(Cl)cc4CN(C)C5)C3)C2)ncc1F", "note": "[compound 252]", "IC50": "< 100"}
{"smiles": "CC1c2nnc(C3CC4(C3)CN(c3ccc(F)cn3)C4)n2-c2ccc(Cl)cc2CN1C", "note": "(single isomer, unassigned) [Cpd 179B]", "IC50": "100 to 500"}
{"smiles": "CCOC(=O)N1Cc2cc(Cl)ccc2-n2c(C3CC4(C3)CN(c3ncc(F)cn3)C4)nnc2C1C", "note": "(single isomer, unassigned) [Cpd 172B]", "IC50": "> 1000"}
{"smiles": "O=C(NC1CC1)N1Cc2cc(Cl)ccc2-n2c(nnc2C2CC3(C2)CN(c2ccc(F)cn2)C3)C1", "note": "[compound 246, 8-chloro-N-cyclopropyl-1-(2-(5-fluoropyridin-2-yl)-2-azaspiro[3.3]heptan-6-yl)-4H-benzo[f][1,2,4]triazolo[4,3-a][1,4]diazepine-5(6H)-carboxamide]", "IC50": "< 100"}
{"smiles": "CC1(N2Cc3cc(Cl)ccc3-n3c(nnc3C3CC4(C3)CN(c3nccc(C#N)n3)C4)C2)CC1", "note": "[compound 263]", "IC50": "< 100"}
{"smiles": "CC(C)OC(=O)N1Cc2cc(Cl)ccc2-n2c(C3CC4(C3)CN(c3ccc(F)cn3)C4)nnc2C1C", "note": "(single isomer, unassigned) [Cpd 163B]", "IC50": "500 to 1000"}
{"smiles": "Cc1ccc(F)c(N2CC3(CC(c4nnc5n4-c4ccc(Cl)cc4CN(C4CC4)C5)C3)C2)n1", "note": "[compound 273]", "IC50": "< 100"}
{"smiles": "N#Cc1ccnc(N2CC3(CC(c4nnc5n4-c4ccc(Cl)cc4CN(C4CC4)C5)C3)C2)n1", "note": "[compound 248]", "IC50": "< 100"}
{"smiles": "Clc1ccc2c(c1)CN(C1CCC1)Cc1nnc(C3CC4(C3)CN(c3cnccn3)C4)n1-2", "note": "[compound 40]", "IC50": "< 100"}
{"smiles": "COCCN1Cc2cc(Cl)ccc2-n2c(nnc2C2CC3(C2)CN(c2ncccc2F)C3)C1", "note": "[compound 53]", "IC50": "< 100"}
{"smiles": "COC(=O)N1Cc2cc(Cl)ccc2-n2c(C3CC4(C3)CN(c3ncncc3F)C4)nnc2C1C", "note": "(single isomer, unassigned) [Cpd 188A]", "IC50": "< 100"}
{"smiles": "CC1c2nnc(C3CC4(C3)CN(c3ccccn3)C4)n2-c2ccc(Cl)cc2CN1C(=O)C1(F)CC1", "note": "(stereo not shown) [compound 181]", "IC50": "< 100"}
{"smiles": "Cc1nccnc1N1CC2(CC(c3nnc4n3-c3ccc(Cl)cc3CN(C3(C)CC3)C4)C2)C1", "note": "[compound 244]", "IC50": "< 100"}
{"smiles": "N#Cc1ccnc(N2CC3(CC(c4nnc5n4-c4ccc(Cl)cc4CN(C4CC4)C5)C3)C2)c1", "note": "[compound 232]", "IC50": "< 100"}
{"smiles": "CN1Cc2cc(Cl)ccc2-n2c(nnc2C2CC3(C2)CN(c2ncncc2F)C3)C1", "note": "[compound 238]", "IC50": "< 100"}
{"smiles": "CC(C)OC(=O)N1Cc2cc(Cl)ccc2-n2c(C3CC4(C3)CN(c3ccncn3)C4)nnc2C1C", "note": "(single isomer, unassigned) [Cpd 187A]", "IC50": "< 100"}
{"smiles": "CN1Cc2cc(Cl)ccc2-n2c(nnc2C2CC3(C2)CN(c2noc(C4CC4)n2)C3)C1", "note": "[compound 267]", "IC50": "> 1000"}
{"smiles": "CN1Cc2cc(Cl)ccc2-n2c(nnc2C2CC3(C2)CN(C(=O)C2CCO2)C3)C1", "note": "(stereo not shown) [compound 33]", "IC50": "> 1000"}
{"smiles": "CC1c2nnc(C3CC4(C3)CN(c3ncc(F)cn3)C4)n2-c2ccc(Cl)cc2CN1C(=O)OC1CC1", "note": "(single isomer, unassigned) [Cpd 192B]", "IC50": "> 1000"}
{"smiles": "O=C(C1C[C@@H]1F)N1Cc2cc(Cl)ccc2-n2c(nnc2C2CC3(C2)CN(c2ccc(F)cn2)C3)C1", "note": "(stereo partly shown) [compound 159]", "IC50": "< 100"}
{"smiles": "COCCN1Cc2cc(Cl)ccc2-n2c(nnc2C2CC3(C2)CN(c2cnccn2)C3)C1", "note": "[compound 43]", "IC50": "< 100"}
{"smiles": "CC(C)(C)OC(=O)N1Cc2cc(Cl)ccc2-n2c(nnc2C2CC3(C2)CN(c2ccccn2)C3)C1", "note": "[compound 62]", "IC50": "< 100"}
{"smiles": "COC(=O)N1Cc2cc(Cl)ccc2-n2c(C3CC4(C3)CN(c3ncccn3)C4)nnc2C1C", "note": "(single isomer, unassigned) [Cpd 166B]", "IC50": "500 to 1000"}
{"smiles": "CN1Cc2cc(Cl)ccc2-n2c(nnc2C2CC3(C2)CN(c2nc4cnccc4n2C)C3)C1", "note": "[compound 258]", "IC50": "> 1000"}
{"smiles": "CC1(N2Cc3cc(Cl)ccc3-n3c(nnc3C3CC4(C3)CN(c3cccc(C#N)n3)C4)C2)CC1", "note": "[compound 262]", "IC50": "< 100"}
